Laboratory results as given in patent publication US5494932A, “Sulfonic stilbene derivatives in the treatment of viral disease” (Merrell Dow Pharmaceuticals Inc., priority 1991, dated 1996).
Values joined by “and” are separate entries in the source; they are usually repeats but may differ in a detail not shown here. Equal entries are not always repeated. “Also recorded” adds a separate entry of the source. Where two headings read alike, the source gives them in different places.

Assays:
MT-4 cells = test: Cytotoxicity in MT-4 cells, tetrazolium reduction assay; assay type: cell-based, human
[1] = test system: virus-induced cell fusion (gp120-CD4 dependent); test: Cell fusion after pretreatment of uninfected C8166 cells, washing and mixing with chronically infected H9 cells; assay type: cell-based, HIV-1; human H9 and C8166 cells; details: 100 μg/ml; overnight pretreatment, washed; 6 hour observation
Protocol: In the next experiments, CD4+ C8166 cells were pretreated overnight with either DIDS (100 μg/ml), SITS (100 μg/ml) or drug-free medium. Unabsorbed compounds were removed by repeated washings and chronically infected H9 cells were then added. […] Thus, cell washing prior to mixing with the H9 cells oblated the protective effect observed above (FIG. 1, Panel E) when 500,000 MW dextran sulfate was continually present in the assay.
Pretreatment of CD4+ C8166 cells with DIDS blocks fusion with chronically infected H9 cells. In this experiment, C8166 cells were pretreated overight with various stilbene disulfonic acids or drug-free medium (fusion control). The cells were washed, incubated with chronically infected H9 cells and syncytia were photographed at 6 hours post-mixing. Pretreatment conditions were as follows: […]: 100 μg/ml SITS; FIG. 2B: drug-free medium; and FIG. 2C: 100 μg/ml DIDS.
In pretreatment experiments, CD4^+ C8166 cells were maintained in serum-free medium (RPMI 1640 plus human transferrin 50 μg/ml, bovine insulin 20 μg/ml, bovine serum albumin 2 mg/ml) and were exposed to compound by overnight incubation. Treated cells were washed twice in fresh serum-free medium and then cocultured with chronically infected H9 cells in serum-free medium. Otherwise, cell numbers, assay conditions and scoring of syncytia were as described above.
Protocol: C8166 cells were pretreated for 2.5 hours with either DIDS, SITS or H2 DIDS (at 500 and 250 μg/ml). The cells were then washed three times and mixed with H9 cells chronically infected with HIV-1. Cell fusion was quantified after 4 and 24 hours.

HIV-1 infected JM cells = test: Treatment of HIV-1 infected JM cells with DIDS, SITS and ddC; assay type: cell-based, HIV-1 (human T cell line JM)
Protocol: Protocol: JM cells were infected with HIV to give approximately 100 syncytia after 3 days. Virus adsorption was at room temperature for 2 hours. The cells were then washed thoroughly and distributed in wells of a tissue culture plate at a concentration of 1×10^5 cells/well. At 24 hours post infection either DIDS (100 μg/ml), SITS (100 μg/ml), or ddC (5 μM) were added to wells having infected cells. As virus controls, some wells had no drug added. At 42 hours post infection other wells received either ddC (5 μM), SITS (100 μg/ml), or DIDS (100, 50, 25, 12.5, 6.25 μg/ml). Syncytia were scored at 3 and 4 days post-infection and the supernatant fluids were harvested after 3 and 4 days for p24 core antigen determination.

[2] = test system: HIV-1 strain RF in MT-4 cells; test: Growth of HIV-1 RF in MT-4 cells; assay type: cell-based, HIV-1 (human MT-4 cells)
Description: When evaluated in the human T cell line JM acutely infected with the GB8 virus, DIDS, H2 DIDS and SITS (Table I) suppressed virus-induced multinucleated giant cell formation (syncytia). […] We also examined the antiviral properties of these compounds in a second host-cell/virus system, i.e., the highly CD4+ C8166 cells infected with the Haitian strain of HIV-1, RF.
The cell lines used were the semi-mature human lymphoblastoid leukemia T cell line JM, the human T-lymphoblastoid C8166 cell line, the human cutaneous T cell lymphoma line H9 and, the human T cell transformed line MT-4. Stocks of HIV-1 strains RF and GB8 (kindly provided by Dr. Graham Farrar, Center for Applied Microbiological Research, Porton Dawn, England) were prepared from chronically infected H9 cells and acutely infected JM cells, respectively. Virus stocks consisted of cell-free growth medium (RPMI 1640 plus 10% fetal calf serum) containing freshly shed virus. Virus titres were determined by a standard plaque reduction assay.

HCMV = test: Plaque reduction assay, HCMV; assay type: cell-based
Protocol: Protocol: Plaque reduction assay. Treatment after adsorption during incubation.

HIV-1 = test: Back titration of cell-free supernatants (infectivity) on fresh uninfected JM cells; assay type: cell-based, HIV-1 (human T cell line JM); details: for viral infectivity in the cell-free supernatants: data not shown
Protocol: Protocol: JM cells were infected with HIV-1 to give a multiplicity of infection of 0.001. Virus adsorption was for 2 hours at room temperature. The cells were washed and distributed into wells containing different concentrations of test compounds and incubated. After 2 days the cells were observed and syncytia were counted. The cell-free supernatant fluids were harvested at 4 and 6 days post infection and assayed for levels of p24 viral core antigen and after 6 days the supernatants were also titrated to determine levels of infectivity.
*Syncytia-forming unit; cellfree supernatants from virus infected cells
having received the indicated concentration of compounds were incubated
with fresh uninfected JM cells and syncytia were scored to determine the
number of infectious units/ml.
supernatants from virusinfected control cells not having received drug

[3] = test system: virus-induced cell fusion (gp120-CD4 dependent); test: Anti-syncytial cocultivation assay: H9 cells chronically infected with HIV-1 RF mixed with uninfected C8166 cells; assay type: cell-based, HIV-1 RF; human H9 and C8166 cells; details: 200 μg/ml; Panel C

O=S(=O)(O)c1cc(N=C=S)ccc1CCc1ccc(N=C=S)cc1S(=O)(=O)O [H2 DIDS, 4,4'-diisothiocyanatodihydrostilbene-2,2'-disulfonic acid]
cytotoxicity at antiviral concentrations (MT-4 cells): noncytotoxic

O=S(=O)(O)c1cc(N=C=S)ccc1C=Cc1ccc(N=C=S)cc1S(=O)(=O)O [DIDS, 4,4'-diisothiocyanatostilbene-2,2'-disulfonic acid]
syncytia / fusion after pretreatment [1]: remained syncytia-free; also recorded: blocks fusion
cytotoxicity at antiviral concentrations (MT-4 cells): noncytotoxic
Mean syncytia/well 3 days p.i. (HIV-1 infected JM cells; 6 μg/ml, added 42 hr): As VC
Mean syncytia/well 4 days p.i. (HIV-1 infected JM cells; 6 μg/ml, added 42 hr): As VC
p24 antigen 3 days p.i. (HIV-1 infected JM cells; 6 μg/ml, added 42 hr): 18000 pg/mL
p24 antigen 4 days p.i. (HIV-1 infected JM cells; 6 μg/ml, added 42 hr): 34000 pg/mL
Mean syncytia/well 3 days p.i. (HIV-1 infected JM cells; 12 μg/ml, added 42 hr): As VC
Mean syncytia/well 4 days p.i. (HIV-1 infected JM cells; 12 μg/ml, added 42 hr): As VC
p24 antigen 3 days p.i. (HIV-1 infected JM cells; 12 μg/ml, added 42 hr): 210000 pg/mL
p24 antigen 4 days p.i. (HIV-1 infected JM cells; 12 μg/ml, added 42 hr): 390000 pg/mL
Mean syncytia/well 3 days p.i. (HIV-1 infected JM cells; 25 μg/ml, added 42 hr): As VC
Mean syncytia/well 4 days p.i. (HIV-1 infected JM cells; 25 μg/ml, added 42 hr): As VC
p24 antigen 3 days p.i. (HIV-1 infected JM cells; 25 μg/ml, added 42 hr): 15000 pg/mL
p24 antigen 4 days p.i. (HIV-1 infected JM cells; 25 μg/ml, added 42 hr): 59000 pg/mL
Mean syncytia/well 3 days p.i. (HIV-1 infected JM cells; 50 μg/ml, added 42 hr): > 80
Mean syncytia/well 4 days p.i. (HIV-1 infected JM cells; 50 μg/ml, added 42 hr): 100
p24 antigen 3 days p.i. (HIV-1 infected JM cells; 50 μg/ml, added 42 hr): 19200 pg/mL
p24 antigen 4 days p.i. (HIV-1 infected JM cells; 50 μg/ml, added 42 hr): 63000 pg/mL
Mean syncytia/well 3 days p.i. (HIV-1 infected JM cells; 100 μg/ml, added 24 hr): 0
Mean syncytia/well 4 days p.i. (HIV-1 infected JM cells; 100 μg/ml, added 24 hr): 20
p24 antigen 3 days p.i. (HIV-1 infected JM cells; 100 μg/ml, added 24 hr): 6100 pg/mL
p24 antigen 4 days p.i. (HIV-1 infected JM cells; 100 μg/ml, added 24 hr): 15800 pg/mL
Mean syncytia/well 3 days p.i. (HIV-1 infected JM cells; 100 μg/ml, added 42 hr): 34
Mean syncytia/well 4 days p.i. (HIV-1 infected JM cells; 100 μg/ml, added 42 hr): 70
p24 antigen 3 days p.i. (HIV-1 infected JM cells; 100 μg/ml, added 42 hr): 19800 pg/mL
p24 antigen 4 days p.i. (HIV-1 infected JM cells; 100 μg/ml, added 42 hr): 20900 pg/mL
activity at 6 µg/mL (HIV-1 infected JM cells; Human immunodeficiency virus 1, 72 h, 6 μg/ml, added 42 hr, read-out: p24 antigen 3 days p.i., % control): 38%
activity at 12 µg/mL (HIV-1 infected JM cells; Human immunodeficiency virus 1, 72 h, 12 μg/ml, added 42 hr, read-out: p24 antigen 3 days p.i., % control): > 100%
activity at 25 µg/mL (HIV-1 infected JM cells; Human immunodeficiency virus 1, 72 h, 25 μg/ml, added 42 hr, read-out: p24 antigen 3 days p.i., % control): 32%
activity at 50 µg/mL (HIV-1 infected JM cells; Human immunodeficiency virus 1, 72 h, 50 μg/ml, added 42 hr, read-out: p24 antigen 3 days p.i., % control): 41%
activity at 100 µg/mL (HIV-1 infected JM cells; Human immunodeficiency virus 1, 72 h, 100 μg/ml, added 24 hr, read-out: p24 antigen 3 days p.i., % control): 13%
activity at 100 µg/mL (HIV-1 infected JM cells; Human immunodeficiency virus 1, 72 h, 100 μg/ml, added 42 hr, read-out: p24 antigen 3 days p.i., % control): 42%
activity at 6 µg/mL (HIV-1 infected JM cells; Human immunodeficiency virus 1, 96 h, 6 μg/ml, added 42 hr, read-out: p24 antigen 4 days p.i., % control): 38%
activity at 12 µg/mL (HIV-1 infected JM cells; Human immunodeficiency virus 1, 96 h, 12 μg/ml, added 42 hr, read-out: p24 antigen 4 days p.i., % control): 44%
activity at 25 µg/mL (HIV-1 infected JM cells; Human immunodeficiency virus 1, 96 h, 25 μg/ml, added 42 hr, read-out: p24 antigen 4 days p.i., % control): 66%
activity at 50 µg/mL (HIV-1 infected JM cells; Human immunodeficiency virus 1, 96 h, 50 μg/ml, added 42 hr, read-out: p24 antigen 4 days p.i., % control): 70%
activity at 100 µg/mL (HIV-1 infected JM cells; Human immunodeficiency virus 1, 96 h, 100 μg/ml, added 24 hr, read-out: p24 antigen 4 days p.i., % control): 18%
activity at 100 µg/mL (HIV-1 infected JM cells; Human immunodeficiency virus 1, 96 h, 100 μg/ml, added 42 hr, read-out: p24 antigen 4 days p.i., % control): 23%
growth of RF in MT-4 cells / antiviral activity [2]: blocked the growth of RF
Plaque counts (HCMV; 1 μg/ml, first count): 15
Plaque counts (HCMV; 1 μg/ml, second count): 14
Plaque counts (HCMV; 10 μg/ml, first count): 16
Plaque counts (HCMV; 10 μg/ml, second count): 12
Plaque counts (HCMV; 10 μg/ml, third count): 11
Plaque counts (HCMV; 100 μg/ml, first count): 3
Plaque counts (HCMV; 100 μg/ml, second count): 4
Plaque counts (HCMV; 100 μg/ml, third count): 3
Plaque counts (HCMV; 1000 μg/ml, first count): 0
Plaque counts (HCMV; 1000 μg/ml, second count): 0
Plaque counts (HCMV; 1000 μg/ml, third count): 0
activity at 1 µg/mL (HCMV; Human betaherpesvirus 5, 1 μg/ml, read-out: Mean % VC (plaques)): 49%
activity at 10 µg/mL (HCMV; Human betaherpesvirus 5, 10 μg/ml, read-out: Mean % VC (plaques)): 43%
activity at 100 µg/mL (HCMV; Human betaherpesvirus 5, 100 μg/ml, read-out: Mean % VC (plaques)): 10%
activity at 1000 µg/mL (HCMV; Human betaherpesvirus 5, 1000 μg/ml, read-out: Mean % VC (plaques)): 0%
Back titration of cell-free supernatants at 6 days p.i. (HIV-1; 12.5 μg/ml): 2.4 × 10^3 SFUs/ml
Back titration of cell-free supernatants at 6 days p.i. (HIV-1; 50 μg/ml): < 10^1 SFUs/ml
Back titration of cell-free supernatants at 6 days p.i. (HIV-1; 100 μg/ml): < 10^1 SFUs/ml
viral infectivity in the cell-free supernatants (HIV-1): absence of viral infectivity

CC(=O)Nc1ccc(C=Cc2ccc(N=C=S)cc2S(=O)(=O)O)c(S(=O)(=O)O)c1 [SITS, 4-acetamido-4'-isothiocyanatostilbene-2,2'-disulfonic acid]
syncytia / fusion after pretreatment [1]: failed to block syncytia
cell fusion / syncytia [3]: had no effect
Mean syncytia/well 3 days p.i. (HIV-1 infected JM cells; 100 μg/ml, added 24 hr): As VC
Mean syncytia/well 4 days p.i. (HIV-1 infected JM cells; 100 μg/ml, added 24 hr): As VC
p24 antigen 3 days p.i. (HIV-1 infected JM cells; 100 μg/ml, added 24 hr): 18000 pg/mL
p24 antigen 4 days p.i. (HIV-1 infected JM cells; 100 μg/ml, added 24 hr): 62500 pg/mL
Mean syncytia/well 3 days p.i. (HIV-1 infected JM cells; 100 μg/ml, added 42 hr): As VC
Mean syncytia/well 4 days p.i. (HIV-1 infected JM cells; 100 μg/ml, added 42 hr): As VC
p24 antigen 3 days p.i. (HIV-1 infected JM cells; 100 μg/ml, added 42 hr): 7000 pg/mL
p24 antigen 4 days p.i. (HIV-1 infected JM cells; 100 μg/ml, added 42 hr): 95000 pg/mL
activity at 100 µg/mL (HIV-1 infected JM cells; Human immunodeficiency virus 1, 72 h, read-out: p24 antigen 3 days p.i., % control, 100 μg/ml, added 24 hr): 38%
activity at 100 µg/mL (HIV-1 infected JM cells; Human immunodeficiency virus 1, 72 h, read-out: p24 antigen 3 days p.i., % control, 100 μg/ml, added 42 hr): 15%
activity at 100 µg/mL (HIV-1 infected JM cells; Human immunodeficiency virus 1, 96 h, read-out: p24 antigen 4 days p.i., % control, 100 μg/ml, added 24 hr): 70%
activity at 100 µg/mL (HIV-1 infected JM cells; Human immunodeficiency virus 1, 96 h, read-out: p24 antigen 4 days p.i., % control, 100 μg/ml, added 42 hr): > 100%
growth of RF in MT-4 cells / antiviral activity [2]: weak antiviral activity
Back titration of cell-free supernatants at 6 days p.i. (HIV-1; 25 μg/ml): 1.9 × 10^3 SFUs/ml and 2.5 × 10^3 SFUs/ml
Back titration of cell-free supernatants at 6 days p.i. (HIV-1; 100 μg/ml): < 10^1 SFUs/ml
viral infectivity in the cell-free supernatants (HIV-1): absence of viral infectivity
